{"source": "patent US20240285571A1", "about": "“METHODS OF TREATING BONE INFECTIONS” (MICROBION CORPORATION, priority 2020, published 2024)", "assay_type_in_all_cases": "cell-based", "key": {"[1]": {"tested_on": "Acinetobacter baumannii", "assay": "Broth microdilution MIC (Example 6)", "conditions": "Acinetobacter baumannii, read-out: MIC", "summary_of_the_method": "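CLSI broth microdilution in cation-adjusted Mueller Hinton broth, test agents 0.06-64 μg/mL from DMSO stocks, inoculum approx. 5×10^5 CFU/mL. Incubation 35° C for 16–20 hr; MIC taken as lowest concentration inhibiting visible growth.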"}, "[2]": {"tested_on": "relevant ATCC QC organisms", "assay": "Broth microdilution MIC, QC (Example 6)", "conditions": "read-out: MIC", "summary_of_the_method": "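QC strains were tested per CLSI broth microdilution in cation-adjusted Mueller Hinton broth, with Ca2+ supplemented for daptomycin, at about 5×10^5 CFU/mL. Incubation was at 35° C for 16–20 hr, or 24 hr for vancomycin against S. aureus. The MIC was the lowest concentration inhibiting visible growth.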"}, "[3]": {"tested_on": "Escherichia coli", "assay": "Broth microdilution MIC (Example 6)", "conditions": "Escherichia coli, read-out: MIC", "protocol": "(§1) Test Compounds: The test agents BisEDT (MB-1-B3; Lot No. ED268-1-11-01), MB-2B, and MB-6 were stored at room temperature, in the dark, until assayed.\n(§2) For testing daptomycin, calcium was supplemented with […] Ca^2+, resulting in a final concentration of […] Ca^2+ (2, 3).\n(§3) MIC Assay Procedure: MIC values were determined using a broth microdilution procedure described by CLSI (2, 3).\n(§4) The Biomek 2000 was then used to make 2-fold serial dilutions in the mother plates from column 1 through column 11. The wells of column 12 contained no drug and served as the organism growth control wells for the assay.\n(§5) The test panels were prepared on the Biomek FX instrument which transferred 2 μL of drug solution from each well of a mother plate to the corresponding well of each daughter plate in a single step.\n(§6) A standardized inoculum of each test organism was prepared per CLSI methods to equal a 0.5 McFarland standard, followed by a dilution of 1:20. The plates were then inoculated with 10 μL of the diluted inoculum using the Biomek 2000 from low to high drug concentration resulting in a final concentration of approximately 5×10^5 CFU/mL.\n(§7) Plates were stacked 3-4 high, covered with a lid on the top plate, placed into plastic bags, and incubated at 35° C. for 16 to 20 hr (vancomycin was read for S. aureus after 24 hr incubation time). The MIC was recorded as the lowest concentration of drug that inhibited visible growth of the organism."}, "[4]": {"tested_on": "Klebsiella pneumoniae", "assay": "Broth microdilution MIC (Example 6)", "conditions": "Klebsiella pneumoniae, read-out: MIC", "protocol": "as §1, §2, §3, §4, §5, §6, §7"}, "[5]": {"tested_on": "Pseudomonas aeruginosa", "assay": "Broth microdilution MIC (Example 6)", "conditions": "Pseudomonas aeruginosa, read-out: MIC", "protocol": "as §1, §2, §3, §4, §5, §6, §7"}}, "note": "Like-named read-outs stand apart in the source and are kept apart here."}
{"compound": "C[C@H]1COc2c(N3CCN(C)CC3)c(F)cc3c(=O)c(C(=O)O)cn1c23", "note": "[Levofloxacin]", "values": [{"measurement": "MIC", "setting": "[1]; A. baumannii isolate CDC 273, β-lactamase type ESBL/OXA", "value": "> 8", "unit": "µg/mL"}, {"measurement": "MIC", "setting": "[1]; A. baumannii isolate CDC 274, β-lactamase type ESBL/OXA", "value": 8, "unit": "µg/mL"}, {"measurement": "MIC", "setting": "[1]; A. baumannii isolate CDC 275, β-lactamase type ESBL/OXA", "value": 4, "unit": "µg/mL"}, {"measurement": "MIC", "setting": "[1]; A. baumannii isolate CDC 277, β-lactamase type ESBL/OXA", "value": 8, "unit": "µg/mL"}, {"measurement": "MIC", "setting": "[1]; A. baumannii isolate CDC 284, β-lactamase type ESBL/OXA", "value": 8, "unit": "µg/mL"}, {"measurement": "MIC", "setting": "[1]; A. baumannii isolate CDC 307, β-lactamase type OXA", "value": 8, "unit": "µg/mL"}, {"measurement": "MIC", "setting": "[1]; A. baumannii isolate CDC 308, β-lactamase type ESBL/OXA", "value": 4, "unit": "µg/mL"}, {"measurement": "MIC", "setting": "[1]; A. baumannii isolate CDC 311, β-lactamase type OXA", "value": 2, "unit": "µg/mL"}, {"measurement": "MIC", "setting": "[1]; A. baumannii isolate CDC 312, β-lactamase type OXA", "value": 2, "unit": "µg/mL"}, {"measurement": "MIC", "setting": "[1]; A. baumannii isolate CDC 313, β-lactamase type ESBL/OXA", "value": 2, "unit": "µg/mL"}, {"measurement": "MIC", "setting": "[1]; NCTC13304, A. baumannii isolate NCTC 13304, β-lactamase type OXA", "value": 1, "unit": "µg/mL"}, {"measurement": "MIC", "setting": "[2]; Escherichia coli, ATCC25922, E. coli ATCC 25922", "value": "≤ 0.008", "unit": "µg/mL"}, {"measurement": "MIC", "setting": "[2]; Escherichia coli, ATCC35218, E. coli ATCC 35218", "value": "≤ 0.008", "unit": "µg/mL"}, {"measurement": "MIC", "setting": "[2]; Klebsiella pneumoniae, ATCCBAA1705, K. pneumoniae ATCC BAA-1705", "value": "> 8", "unit": "µg/mL"}, {"measurement": "MIC", "setting": "[2]; Pseudomonas aeruginosa, ATCC27853, P. aeruginosa ATCC 27853", "value": 0.5, "unit": "µg/mL"}, {"measurement": "MIC", "setting": "[2]; Staphylococcus aureus, ATCC29213, S. aureus ATCC 29213", "value": 0.06, "unit": "µg/mL"}, {"measurement": "MIC", "setting": "[3]; ATCC35218, E. coli ATCC 35218, ESBL", "value": "≤ 0.008", "unit": "µg/mL"}, {"measurement": "MIC", "setting": "[3]; ATCCBAA2471, E. coli ATCC BAA-2471, NDM", "value": "> 8", "unit": "µg/mL"}, {"measurement": "MIC", "setting": "[3]; E. coli CDC 114, ESBL/KPC", "value": 4, "unit": "µg/mL"}, {"measurement": "MIC", "setting": "[3]; E. coli CDC 118, ESBL/NDM", "value": 8, "unit": "µg/mL"}, {"measurement": "MIC", "setting": "[3]; E. coli CDC 435, NDM", "value": "> 8", "unit": "µg/mL"}, {"measurement": "MIC", "setting": "[3]; E. coli CDC 451, KPC", "value": "> 8", "unit": "µg/mL"}, {"measurement": "MIC", "setting": "[3]; E. coli CDC 503, ESBL/NDM", "value": "> 8", "unit": "µg/mL"}, {"measurement": "MIC", "setting": "[3]; E. coli MMX 5745, KPC", "value": 8, "unit": "µg/mL"}, {"measurement": "MIC", "setting": "[3]; E. coli MMX 5755, ESBL", "value": 8, "unit": "µg/mL"}, {"measurement": "MIC", "setting": "[3]; E. coli MMX 5756, ESBL", "value": 4, "unit": "µg/mL"}, {"measurement": "MIC", "setting": "[3]; E. coli MMX 5758, ESBL", "value": 8, "unit": "µg/mL"}, {"measurement": "MIC", "setting": "[4]; ATCCBAA1705, K. pneumoniae ATCC BAA-1705, ESBL/KPC", "value": "> 8", "unit": "µg/mL"}, {"measurement": "MIC", "setting": "[4]; K. pneumoniae CDC 112, KPC", "value": 4, "unit": "µg/mL"}, {"measurement": "MIC", "setting": "[4]; K. pneumoniae CDC 113, ESBL/KPC", "value": 4, "unit": "µg/mL"}, {"measurement": "MIC", "setting": "[4]; K. pneumoniae CDC 115, ESBL/KPC", "value": "> 8", "unit": "µg/mL"}, {"measurement": "MIC", "setting": "[4]; K. pneumoniae CDC 120, ESBL/KPC", "value": "> 8", "unit": "µg/mL"}, {"measurement": "MIC", "setting": "[4]; K. pneumoniae CDC 126, ESBL/KPC", "value": 0.015, "unit": "µg/mL"}, {"measurement": "MIC", "setting": "[4]; K. pneumoniae CDC 129, ESBL/KPC", "value": "> 8", "unit": "µg/mL"}, {"measurement": "MIC", "setting": "[4]; K. pneumoniae CDC 135, ESBL/VIM", "value": "> 8", "unit": "µg/mL"}, {"measurement": "MIC", "setting": "[4]; K. pneumoniae CDC 138, ESBL/NDM", "value": "> 8", "unit": "µg/mL"}, {"measurement": "MIC", "setting": "[4]; K. pneumoniae CDC 158, ESBL/NDM/OXA", "value": 4, "unit": "µg/mL"}, {"measurement": "MIC", "setting": "[4]; K. pneumoniae MMX 9029, ESBL", "value": 0.12, "unit": "µg/mL"}, {"measurement": "MIC", "setting": "[5]; P. aeruginosa isolate CDC 230, β-lactamase type VIM/OXA", "value": 8, "unit": "µg/mL"}, {"measurement": "MIC", "setting": "[5]; P. aeruginosa isolate CDC 231, β-lactamase type KPC/OXA", "value": "> 8", "unit": "µg/mL"}, {"measurement": "MIC", "setting": "[5]; P. aeruginosa isolate CDC 241, β-lactamase type IMP/OXA", "value": 8, "unit": "µg/mL"}, {"measurement": "MIC", "setting": "[5]; P. aeruginosa isolate CDC 246, β-lactamase type NDM/OXA", "value": "> 8", "unit": "µg/mL"}, {"measurement": "MIC", "setting": "[5]; P. aeruginosa isolate CDC 250, β-lactamase type NDM/OXA", "value": "> 8", "unit": "µg/mL"}, {"measurement": "MIC", "setting": "[5]; P. aeruginosa isolate CDC 356, β-lactamase type KPC", "value": 0.12, "unit": "µg/mL"}, {"measurement": "MIC", "setting": "[5]; P. aeruginosa isolate CDC 439, β-lactamase type IMP", "value": 8, "unit": "µg/mL"}, {"measurement": "MIC", "setting": "[5]; P. aeruginosa isolate CDC 444, β-lactamase type VIM", "value": 8, "unit": "µg/mL"}, {"measurement": "MIC", "setting": "[5]; P. aeruginosa isolate CDC 457, β-lactamase type VIM", "value": "> 8", "unit": "µg/mL"}, {"measurement": "MIC", "setting": "[5]; P. aeruginosa isolate CDC 516, β-lactamase type KPC/AmpC", "value": 0.25, "unit": "µg/mL"}, {"measurement": "MIC", "setting": "[5]; P. aeruginosa isolate CDC 518, β-lactamase type KPC/AmpC", "value": "> 8", "unit": "µg/mL"}]}
